Measurements: paper PMC5100981 (Antiviral research, 2016)
Read-outs that look alike come from different tables or passages of the source.

What was measured:
[1] = tested on: EV-D68 (US/KY/14-18953 strain); assay: Virus yield reduction; type: cell-based, Enterovirus D68
EV-71 = settings: ref Zhang et al., 2013; cited from earlier work
[2] = tested on: Rhinovirus 87 (F02-3607 Corn strain); assay: CPE inhibition assay; type: cell-based
[3] = tested on: Enterovirus D68 (Fermon strain); assay: CPE inhibition assay; type: cell-based; settings: for EC50: Enterovirus D, RD, read-out: EC50, 50% effective (virus-inhibitory) concentration
[4] = tested on: Enterovirus 71 (Tainan/4643/98 strain); assay: CPE inhibition assay; type: cell-based
in vitro [5] = settings: human
in vitro [6] = settings: human, uninfected A549 lung carcinoma cells, stationary monolayers
EV-D68/US/KY/14-18953 [7] = assay: CPE inhibition; type: cell-based, Enterovirus D68; settings: for SI, selectivity index (CC50 / EC50): A549 cells; for EC50: Enterovirus D, EVD68, A549, read-out: EC50, 50% effective concentration
EV-D68/US/KY/14-18953 [8] = assay: CPE inhibition; type: cell-based, Enterovirus D68; settings: for EC50: Enterovirus D, EVD68, HeLa Ohio1, read-out: EC50, 50% effective concentration; for SI, selectivity index (CC50 / EC50): HeLa-Ohio-1 cells
[9] = tested on: RD human rhabdomyosarcoma cells
[10] = EV-D68 US/KY/14-18953, RD cells
[11] = Enterovirus D68/Fermon, RD cells

Compound	SI, selectivity index (CC50 [from Table 1] / EC90) [1]	Treatment of EV-71 infection in suckling mice (mortality and clinical scores) (EV-71)	SI, selectivity index (CC50 / EC50) [2]	SI, selectivity index (CC50 / EC50) [3]	EC50 [3] [µM]	SI, selectivity index (CC50 / EC50) [4]	CC50 (in vitro [5]) [µM]	SI, selectivity index (CC50 [from Table 1] / EC90) [1, 10]	CC50 (in vitro [6]) [µM]	SI, selectivity index (CC50 / EC50) ([2]; Rhinovirus 87, RD cells)	SI, selectivity index (CC50 / EC50) (EV-D68/US/KY/14-18953 [7])	EC50 (EV-D68/US/KY/14-18953 [7]) [µM]	SI, selectivity index (CC50 / EC50) [3, 11]	SI, selectivity index (CC50 / EC50) ([4]; Enterovirus 71, RD cells)	CC50 (in vitro [5]; uninfected RD rhabdomyosarcoma cells, stationary monolayers) [µM]	EC50 (EV-D68/US/KY/14-18953 [8]) [µM]	SI, selectivity index (CC50 / EC50) (EV-D68/US/KY/14-18953 [8])	Overall activity against EV-D68 virus (in words) ([1]; CPE inhibited at much lower concentration than virus yield)	CC50 [9] [µM]
CCOC(=O)/C=C/[C@H](C[C@@H]1CCNC1=O)NC(=O)[C@@H](CC(=O)[C@@H](NC(=O)c1cc(C)on1)C(C)C)Cc1ccc(F)cc1 [Rupintrivir, rupintrivir]	33,500	effective	25280	60910	0.0022	7450	134 ± 21	–	–	–	–	–	–	–	–	–	–	–	–
NC(=O)c1ncn([C@@H]2O[C@H](CO)[C@@H](O)[C@H]2O)n1 [Ribavirin, ribavirin]	–	–	–	–	147 ± 74	–	1100 ± 450	–	–	–	–	–	–	–	–	–	–	–	–
CC(C)S(=O)(=O)n1c(N)nc2ccc(/C(=N/O)c3ccccc3)cc21 [Enviroxime, enviroxime]	–	–	–	–	0.27 ± 0.19	–	–	156	68 ± 13	500	89	0.77 ± 1.1	352	92	66 ± 28	1.7 ± 0.72	45	–	–
Nc1cc2nc[nH]c2c(=O)[nH]1 [3-Deazaguanine, 3-deazaguanine]	45	–	45	54	6.7 ± 1.6	5	360 ± 227	–	–	–	–	–	–	–	–	–	–	–	–
Cc1cc(CCCOc2c(C)cc(-c3noc(C(F)(F)F)n3)cc2C)on1 [Pleconaril, pleconaril]	54	–	7	87	0.13 ± 0.09	–	11.3 ± 6.3	–	–	–	–	–	–	–	–	–	–	–	–
CCOC(=O)c1ccc(OCCC2CCN(c3ccc(C)nn3)CC2)cc1 [Pirodavir, pirodavir]	–	–	–	–	7 ± 3	–	–	<1	–	–	13	11 ± 7.2	3	24	–	6.1 ± 2.8	5.3	poorly effective	32 ± 18
